Source: ChEMBL document CHEMBL5096227, “Discovery of Ervogastat (PF-06865571): A Potent and Selective Inhibitor of Diacylglycerol Acyltransferase 2 for the Treatment of Non-alcoholic Steatohepatitis” (J Med Chem, 2022)

Key:
[1] = Plasma protein binding in human assessed as unbound fraction ratio at 2 uM; type: ADME, cell-free
[2] = molecular target: T1, Diacylglycerol O-acyltransferase 1 (Homo sapiens, UniProt O75907); assay: Inhibition of human DGAT1 using [1-14C]decanoyl-CoA and 1,2-didecanoyl-sn-glycerol as substrates assessed as incorporation of [1-14C]decanoyl […] preincubated for 30 mins followed by substrate addition and measured after 30 to 90 mins by scintillation counting method
T1 sequence (O75907 whole entry): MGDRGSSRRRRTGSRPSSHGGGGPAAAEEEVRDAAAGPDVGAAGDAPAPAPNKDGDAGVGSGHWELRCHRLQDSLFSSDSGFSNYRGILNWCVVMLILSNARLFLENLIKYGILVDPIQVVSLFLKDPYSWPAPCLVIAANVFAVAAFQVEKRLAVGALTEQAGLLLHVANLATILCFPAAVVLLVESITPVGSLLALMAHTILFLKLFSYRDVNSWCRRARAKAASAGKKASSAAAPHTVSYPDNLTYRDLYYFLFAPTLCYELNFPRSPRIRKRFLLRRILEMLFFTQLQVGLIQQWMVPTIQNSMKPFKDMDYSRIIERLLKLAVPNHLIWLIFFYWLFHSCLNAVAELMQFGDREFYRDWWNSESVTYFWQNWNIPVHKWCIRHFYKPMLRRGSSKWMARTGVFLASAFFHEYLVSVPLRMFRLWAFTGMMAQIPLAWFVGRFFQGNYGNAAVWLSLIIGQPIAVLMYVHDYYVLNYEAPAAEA

[3] = Apparent permeability in MDCK-II cells; type: ADME, cell-based, Canis lupus familiaris; conditions: dog, MDCK; read-out: Papp
CYP3A4/5 = CYP3A4/5 (Homo sapiens, UniProt P08684+P20815); assay: Reversible inhibition of CYP3A4/5 in pooled human liver microsomes; type: ADME, Microsome
Cytochrome P450 2C9 = Cytochrome P450 2C9 (Homo sapiens, UniProt P11712); assay: Reversible inhibition of CYP2C9 in pooled human liver microsomes using 4-Hydroxydiclofenac as substrate incubated for 10 mins in presence of NADPH by HPLC-MS/MS analysis; type: ADME, Microsome
Cytochrome P450 2D6 = Cytochrome P450 2D6 (Homo sapiens, UniProt P10635); assay: Reversible inhibition of CYP2D6 in pooled human liver microsomes using dextrorphan as substrate incubated for 14 mins in presence of NADPH by HPLC-MS/MS analysis; type: ADME, Microsome
[4] = Oral bioavailability in Wistar Han rat at 5 mg/kg; type: ADME, organism-based; conditions: in vivo
[5] = Drug metabolism in cryopreserved human hepatocytes assessed as O-deethylation mediated pyridin-3-ol metabolite formation at 10 uM measured for 240 mins by HPLC-UV-MS analysis; type: ADME, cell-based, Hepatocyte; conditions: 4 h
[6] = molecular target: T2, Diacylglycerol O-acyltransferase 2 (Rattus norvegicus, UniProt Q5FVP8); assay: Inhibition of rat DGAT2 using [1-14C]decanoyl-CoA and 1,2-didecanoyl-sn-glycerol as substrates assessed as incorporation of [1-14C]decanoyl into triacylglycerol preincubated for 120 mins followed by substrate addition and measured after 40 mins by scintillation counting method
T2 sequence (Q5FVP8 whole entry): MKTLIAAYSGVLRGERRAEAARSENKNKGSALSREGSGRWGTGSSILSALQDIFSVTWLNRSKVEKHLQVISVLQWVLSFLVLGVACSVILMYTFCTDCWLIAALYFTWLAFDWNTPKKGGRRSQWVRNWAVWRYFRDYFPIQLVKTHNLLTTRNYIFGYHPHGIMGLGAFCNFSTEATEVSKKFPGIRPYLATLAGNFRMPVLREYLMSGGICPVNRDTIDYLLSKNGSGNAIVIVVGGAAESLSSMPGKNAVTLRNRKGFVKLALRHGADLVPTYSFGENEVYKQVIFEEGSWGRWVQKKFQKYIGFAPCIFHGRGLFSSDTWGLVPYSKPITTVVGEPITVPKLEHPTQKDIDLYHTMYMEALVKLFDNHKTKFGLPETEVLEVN

[7] = Inhibition of [14C]-glycerol incorporation into triglycerides in human primary hepatocytes; type: functional, cell-based; conditions: hepatocyte
[8] = Inhibition of [14C]-glycerol incorporation into triglycerides in rat primary hepatocytes; type: functional, cell-based; conditions: hepatocyte
[9] = Inhibition of [14C]-glycerol incorporation into triglycerides in monkey primary hepatocytes; type: functional, cell-based, Macaca mulatta; conditions: hepatocyte
[10] = Plasma clearance in Wistar Han rat at 1 mg/kg, iv; type: ADME, organism-based
[11] = Half life in Wistar Han rat at 1 mg/kg, iv; type: ADME, organism-based; conditions: in vivo
[12] = Half life in Wistar Han rat at 5 mg/kg, po; type: ADME, organism-based; conditions: in vivo
[13] = Volume of distribution at steady state in Wistar Han rat at 1 mg/kg, iv; type: ADME, organism-based; conditions: in vivo, read-out: Vdss
[14] = Plasma clearance in cynomolgus monkey at 1 mg/kg, iv; type: ADME, organism-based, Macaca fascicularis
[15] = Half life in cynomolgus monkey at 1 mg/kg, iv; type: ADME, organism-based, Macaca fascicularis; conditions: in vivo
[16] = Volume of distribution at steady state in cynomolgus monkey at 1 mg/kg, iv; type: ADME, organism-based, Macaca fascicularis; conditions: in vivo, read-out: Vdss
[17] = Oral bioavailability in cynomolgus monkey at 5 mg/kg; type: ADME, organism-based, Macaca fascicularis; conditions: in vivo
[18] = Drug metabolism in cryopreserved human hepatocytes assessed as hydrolytic cleavage of amide bond mediated metabolite formation at 10 uM measured for 240 mins by HPLC-UV-MS analysis; type: ADME, cell-based, Hepatocyte; conditions: 4 h
[19] = Plasma protein binding in rat assessed as unbound fraction ratio at 2 uM; type: ADME, cell-free
[20] = Plasma protein binding in cynomolgus monkey assessed as unbound fraction ratio at 2 uM; type: ADME, cell-free, Macaca fascicularis
[21] = Drug metabolism in rat hepatocytes assessed as O-deethylation mediated pyridin-3-ol mediated metabolite formation; type: ADME, cell-based, Hepatocyte
[22] = Drug metabolism in monkey hepatocytes assessed as O-deethylation mediated pyridin-3-ol mediated metabolite formation; type: ADME, cell-based, Macaca mulatta, Hepatocyte; conditions: rhesus monkey
[23] = Drug metabolism in monkey hepatocytes assessed as oxidation of THF ring mediated metabolite formation; type: ADME, cell-based, Macaca mulatta, Hepatocyte; conditions: rhesus monkey
[24] = Drug metabolism in monkey hepatocytes assessed as hydrolytic cleavage of amide bond mediated metabolite formation; type: ADME, cell-based, Macaca mulatta, Hepatocyte; conditions: rhesus monkey
Rattus norvegicus [25] = assay: In vivo inhibition of DGAT2 in sucrose diet fed Sprague-Dawley rat assessed as reduction in triglyceride level administered as single oral dose and measured after 2 hrs; type: functional, organism-based; conditions: dose 0.3-90 mg/kg, DDE = dose-dependent effect
Rattus norvegicus [26] = assay: In vivo inhibition of DGAT2 in high fat/high cholesterol diet fed Sprague-Dawley rat model assessed as reduction in plasma triglyceride level administered orally twice daily for 7 days starting from day 14 post diet and measured 2 hrs post last dose; type: functional, organism-based; conditions: dose 0.3-90 mg/kg, route po, time 7.0 day, DDE = dose-dependent effect
[27] = In vivo inhibition of DGAT2 in high fat/high cholesterol diet fed Sprague-Dawley rat model assessed as reduction in plasma triglyceride level at 90 mg/kg, po administered twice daily for 7 days starting from day 14 post diet and measured 2 hrs post last dose relative to control; type: functional; design: scale not given: the % may be the effect or the level left; conditions: time 7 day
[28] = molecular target: Voltage-gated inwardly rectifying potassium channel KCNH2 (Homo sapiens, UniProt Q12809); assay: Inhibition of hERG by patch-clamp method; type: toxicity
[29] = Toxicity in rat assessed as development-limiting toxicity; conditions: in vivo
[30] = Toxicity in non-human primates assessed as development-limiting toxicity
[31] = Cardiotoxicity in non-human primates assessed as development-limiting toxicity
physchem = conditions: buffer, pH 7.4
Description: Lipophilicity, logD of compound at pH 7.4 by shake flask method

Cytochrome P450 2D6, sequence (P10635 whole entry): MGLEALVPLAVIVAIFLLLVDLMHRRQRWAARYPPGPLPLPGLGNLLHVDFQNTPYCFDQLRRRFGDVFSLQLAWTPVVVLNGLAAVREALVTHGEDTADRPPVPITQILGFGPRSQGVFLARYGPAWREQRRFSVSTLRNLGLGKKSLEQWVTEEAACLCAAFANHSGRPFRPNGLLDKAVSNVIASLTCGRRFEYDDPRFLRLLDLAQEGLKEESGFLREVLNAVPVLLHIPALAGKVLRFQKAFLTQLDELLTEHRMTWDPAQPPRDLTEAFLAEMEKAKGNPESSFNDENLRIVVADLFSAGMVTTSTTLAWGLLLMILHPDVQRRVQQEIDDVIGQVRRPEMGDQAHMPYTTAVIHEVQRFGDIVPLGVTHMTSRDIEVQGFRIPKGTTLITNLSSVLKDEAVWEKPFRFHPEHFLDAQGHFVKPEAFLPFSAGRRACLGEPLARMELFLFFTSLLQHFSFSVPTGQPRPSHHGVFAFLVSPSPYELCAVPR
Voltage-gated inwardly rectifying potassium channel KCNH2, sequence (Q12809 whole entry): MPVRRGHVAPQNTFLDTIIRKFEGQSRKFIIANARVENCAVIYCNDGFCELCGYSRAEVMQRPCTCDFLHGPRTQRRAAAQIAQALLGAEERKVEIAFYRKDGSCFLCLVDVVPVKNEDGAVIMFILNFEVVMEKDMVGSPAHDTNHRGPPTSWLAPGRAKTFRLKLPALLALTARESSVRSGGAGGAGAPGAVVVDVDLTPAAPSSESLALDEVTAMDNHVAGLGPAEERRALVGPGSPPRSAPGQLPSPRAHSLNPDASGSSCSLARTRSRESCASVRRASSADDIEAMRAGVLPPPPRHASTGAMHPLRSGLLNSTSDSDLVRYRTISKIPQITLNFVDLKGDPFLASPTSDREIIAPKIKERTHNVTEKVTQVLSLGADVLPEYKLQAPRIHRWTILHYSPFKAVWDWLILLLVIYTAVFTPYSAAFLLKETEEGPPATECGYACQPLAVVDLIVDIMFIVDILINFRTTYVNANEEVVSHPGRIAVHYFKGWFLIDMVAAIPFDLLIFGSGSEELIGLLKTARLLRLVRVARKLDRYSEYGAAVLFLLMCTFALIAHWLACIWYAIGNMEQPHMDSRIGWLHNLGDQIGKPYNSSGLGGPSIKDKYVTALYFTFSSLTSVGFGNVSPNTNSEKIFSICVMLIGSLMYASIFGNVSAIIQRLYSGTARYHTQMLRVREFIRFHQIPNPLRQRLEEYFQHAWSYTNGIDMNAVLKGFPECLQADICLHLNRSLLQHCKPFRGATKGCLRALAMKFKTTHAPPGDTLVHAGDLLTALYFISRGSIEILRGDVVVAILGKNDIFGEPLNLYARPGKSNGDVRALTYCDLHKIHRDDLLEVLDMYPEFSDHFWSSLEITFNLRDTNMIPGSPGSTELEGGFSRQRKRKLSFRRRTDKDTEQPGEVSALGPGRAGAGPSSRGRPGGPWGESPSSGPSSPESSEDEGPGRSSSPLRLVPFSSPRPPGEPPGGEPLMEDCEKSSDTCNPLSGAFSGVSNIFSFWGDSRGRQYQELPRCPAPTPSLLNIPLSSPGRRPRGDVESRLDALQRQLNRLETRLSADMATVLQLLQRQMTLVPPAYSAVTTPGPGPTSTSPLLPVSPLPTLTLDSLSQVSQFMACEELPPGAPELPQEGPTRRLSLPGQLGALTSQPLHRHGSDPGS
Cytochrome P450 2C9, sequence (P11712 whole entry): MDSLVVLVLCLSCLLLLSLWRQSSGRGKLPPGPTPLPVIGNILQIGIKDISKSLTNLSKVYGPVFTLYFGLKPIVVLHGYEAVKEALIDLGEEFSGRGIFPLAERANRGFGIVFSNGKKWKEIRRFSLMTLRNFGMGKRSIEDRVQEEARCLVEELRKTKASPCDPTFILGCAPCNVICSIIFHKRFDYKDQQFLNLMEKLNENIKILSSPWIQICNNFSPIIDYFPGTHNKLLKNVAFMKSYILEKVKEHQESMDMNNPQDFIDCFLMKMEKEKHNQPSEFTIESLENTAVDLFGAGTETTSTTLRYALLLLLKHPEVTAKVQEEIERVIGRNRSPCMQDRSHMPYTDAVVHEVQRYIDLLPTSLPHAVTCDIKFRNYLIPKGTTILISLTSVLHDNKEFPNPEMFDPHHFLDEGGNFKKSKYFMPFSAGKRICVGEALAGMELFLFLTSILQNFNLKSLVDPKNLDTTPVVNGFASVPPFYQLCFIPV

CCOc1cccnc1Oc1cncc(-c2ncc(C(=O)N[C@H]3CCOC3)cn2)c1 [PF-06865571]
Ratio [1]: 0.353 | IC50 [2]: > 50000 nM | Papp [3]: 19 ×10⁻⁶ cm/s | IC50 (CYP3A4/5): > 100000 nM | IC50 (Cytochrome P450 2C9): 8700 nM | IC50 (Cytochrome P450 2D6): > 100000 nM | bioavailability [4]: 31% | Drug metabolism [5]: Metabolite_Detected | IC50 [6]: 833 nM | IC50 [7]: 2.79 nM | IC50 [8]: 6.02 nM | IC50 [9]: 2.13 nM | clearance [10]: 61 mL/min/kg | half-life [11]: 0.3 h | half-life [12]: 1 h | Vd [13]: 0.9 L/kg | clearance [14]: 10 mL/min/kg | half-life [15]: 1 h | Vd [16]: 0.7 L/kg | bioavailability [17]: 48% | Drug metabolism [18]: Metabolite_Detected | Ratio [19]: 0.213 | Ratio [20]: 0.36 | Drug metabolism [21]: Metabolite_Detected | Drug metabolism [22]: Metabolite_Detected | Drug metabolism [23]: Metabolite_Detected | Drug metabolism [24]: Metabolite_Detected | inhibition (Rattus norvegicus [25]): Dde | Activity (Rattus norvegicus [26]): Dde | Activity [27]: 70% | IC50 [28]: > 100000 nM | Activity [29]: Non-Toxic | Activity [30]: Non-Toxic | Activity [31]: Non-Toxic | logD (physchem): 1.9
